# Counter-ions that a name gives are not always drawn. Like-named read-outs stand apart in the source and are kept apart here.
# Key:
# cyclic oxygenase = molecular target: T1, cyclic oxygenase (Ovis aries, UniProt P05979); experiment: effect on biosynthesis of prostaglandins: activity of cyclic oxygenase, oxygen consumption with arachidonic acid substrate (Clark electrode); assay type: biochemical, sheep; conditions: for AC50: concentration for 50% increase in oxygen consumption; for EC (100% increase): concentration for 100% increase in oxygen consumption, read-out: AC100%
# T1 construct: As an enzyme source a homogenizate of sheep spermatocele; from tissue; host or cells: homogenate of sheep 'spermatocele' (read as seminal vesicle)
# T1 sequence (P05979 25-600): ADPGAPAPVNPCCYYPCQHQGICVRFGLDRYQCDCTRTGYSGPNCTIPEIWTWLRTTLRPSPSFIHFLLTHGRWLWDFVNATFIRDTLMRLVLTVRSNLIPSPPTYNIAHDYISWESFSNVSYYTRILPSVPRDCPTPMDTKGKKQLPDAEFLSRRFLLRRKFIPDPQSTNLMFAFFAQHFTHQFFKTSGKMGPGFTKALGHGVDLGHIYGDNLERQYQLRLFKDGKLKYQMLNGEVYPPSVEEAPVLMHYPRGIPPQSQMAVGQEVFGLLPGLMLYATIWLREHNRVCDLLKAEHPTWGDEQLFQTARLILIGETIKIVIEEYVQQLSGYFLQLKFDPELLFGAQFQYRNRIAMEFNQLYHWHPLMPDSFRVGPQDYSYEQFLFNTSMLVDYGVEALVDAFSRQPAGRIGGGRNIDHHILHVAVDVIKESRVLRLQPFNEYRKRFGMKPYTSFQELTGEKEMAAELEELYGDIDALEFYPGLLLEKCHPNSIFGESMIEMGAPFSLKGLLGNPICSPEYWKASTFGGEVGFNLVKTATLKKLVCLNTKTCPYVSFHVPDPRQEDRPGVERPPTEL
# Procedure: The effect of the compounds of the formula (I) on the biosynthesis of prostaglandins was determined by a known technique (J. Biol. Chem., 246, 6700; 1971). As an enzyme source a homogenizate of sheep spermatocele and as a substrate arachidonic acid were used. The transformation of the substrate, which involves oxygen consumption, was monitored on the basis of the change of the concentration of dissolved oxygen, which was measured by a Clark electrode. During the measurements the concentration of the active compounds, which involved a 50% and 100%, respectively, […] in the oxygen consumption were determined. The concentrations were expressed in μM/lit. The results obtained are contained in the Table below. |The effect of the compounds of the formula |(I) on the activity of cyclic oxygenase |Substrate: arachidonic acid
# paw oedema = experiment: antiinflammatory activity, carrageenien-induced paw oedema on rats; assay type: in vivo
# Procedure: The diuretic activity of the compounds of the formula (I) was tested on rats. The quantity of the urine passed in 4 hours and of the discharged Na^+ and K^+ ions were determined by known methods (Arzneimitt. Forsch. 27, 559; 1978). The antiinflammatory activity was tested in paw oedema on rats. The oedema was induced by […] inhibition was expressed in %.
# [1] = acute toxicity (LD50) on mice; conditions: mouse, in vivo, po
# histamine = experiment: antagonistic activity against histamine on ileum of guinea pigs; conditions: for effect against histamine relative to theophylline: 50 μg/ml. antagonistic dose
# [2] = system: isolated trachea of guinea pigs; experiment: relaxant activity on isolated trachea of guinea pigs; conditions: for relaxant effect relative to theophylline: 1 μg/ml. dose; for relaxant activity relative to theophylline: related to a 95 to 100% relaxation
# Procedure: According to a test carried out on isolated trachea of guinea pigs (J. Pharm. Pharmac. 31, 798; 1979) the compounds prepared according to the invention have a relaxant activity. […] The activity of the compounds obtained in Example 4 is significant also at a dose of 0.1 μg/ml.
# acetylcholine = experiment: antagonistic activity against acetylcholine on ileum of guinea pigs
# serotonine = serotonine antagonistic effect on gastric fundus strip of rats; conditions: 10 μg/ml. antagonistic dose
# [3] = diuretic activity on rats, quantity of urine passed in 4 hours; assay type: in vivo; conditions: 2 mg/kg. dose, compared with 2 mg/kg. p.o. Hypothiazid
# Procedure: The diuretic activity of the compounds of the formula (I) was tested on rats. The quantity of the urine passed in 4 hours and of the discharged Na^+ and K^+ ions were determined by known methods (Arzneimitt. Forsch. 27, 559; 1978). The antiinflammatory activity was tested in paw oedema on rats. The oedema was induced by carrageenien and the inhibition was expressed in %.
AC50 (cyclic oxygenase),EC (100% increase) (cyclic oxygenase),SMILES,inhibition (serotonine antagonistic effect) (serotonine),other results
40 µM,80 µM,"N#CC(SCC(=O)O)C1=NCCc2ccccc21 (stereo not drawn) [Example 5, α-carboxy-methyl-mercapto-3,4-dihydro-isoquinolyl-acetonitrile]",–,–
48 µM,96 µM,"N#CC(SCCC(=O)O)C1=NCCc2ccccc21 (stereo not drawn) [Example 8, α-(2-carboxyethyl)-mercapto-3,4-dihydro-1-isoquinolyl-acetonitrile]",8%,–
105 µM,–,"COc1cc2c(cc1OC)C(C(C#N)SC(C)C(=O)O)=NCC2 (stereo not drawn) [Example 12, α-(1-carboxy-1-ethyl)-mercapto-6,7-dimethoxy-3,4-dihydro-1-isoquinolyl-acetonitrile]",–,–
280 µM,395 µM,"CCN(CC)CCSC(C#N)C1=NCCc2cc(OC)c(OC)cc21 (stereo not drawn) [Example 14, α-(2-diethylaminoethyl)-mercapto-6,7-dimethoxy-3,4-dihydro-1-isoquinolyl-acetonitrile hydrochloride]",–,–
62 µM,124 µM,"COc1cc2c(cc1OC)C(C(C#N)SCCN(C)C)=NCC2 (stereo not drawn) [Example 15, α-(2-dimethylaminoethyl)-mercapto-6,7-dimethoxy-3,4-dihydro-1-isoquinolyl-acetonitrile hydrochloride]",–,–
69 µM,138 µM,"CCOC(=O)CSC(C#N)C1=NCCc2cc(OC)c(OC)cc21 (stereo not drawn) [Example 18, α(ethoxycarbonyl)-methyl-mercapto-6,7-dimethoxy-3,4dihydro-1-isoquinolyl-acetonitrile]",–,–
720 µM,1800 µM,"COc1cc2c(cc1OC)C(C(C#N)SCC(=O)NN)=NCC2 (stereo not drawn) [Example 22, α-(carbohydrazidomethyl)-mercapto-6,7-dimethoxy-3,4-dihydro-1-isoquinolyl-acetonitrile]",–,–
–,–,"Cn1c(=O)c2[nH]cnc2n(C)c1=O [theophylline, reference compound]",8%,inhibition against acetylcholine (acetylcholine; 50 μg/ml. antagonistic dose): 16%; maximum inhibition (acetylcholine) (acetylcholine; at a dose of 200 μg/ml.): 30%

SMILES,AC50 (cyclic oxygenase),EC (100% increase) (cyclic oxygenase),inhibition (serotonine antagonistic effect) (serotonine),other results
"COc1cc2c(cc1OC)C(C(C#N)SCCO)=NCC2 (stereo not drawn) [Example 3, α-(2-hydroxy-ethylmercapto)-6,7-dimethoxy-3,4-dihydro-1-isoquinolyl-acetonitrile]",100 µM,200 µM,–,"inhibition in paw oedema test (paw oedema; 100 mg/kg dose, rats (route not given)): 20%; LD50 ([1]; per os on mice, read-out: DL): > 500 mg/kg"
"COc1cc2c(cc1OC)C(C(C#N)SCCCO)=NCC2 (stereo not drawn) [Example 4, α-(3-hydroxy-propylmercapto)-6,7-dimethoxy-3,4-dihydro-1-isoquinolyl-acetonitrile]",70 µM,140 µM,80%,"maximum inhibition (histamine) (histamine; 50 μg/ml.): 100%; effect against histamine relative to theophylline (histamine): six-times more potent; relaxant effect relative to theophylline [2]: five-times more effective than theophylline; relaxant activity ([2]; dose of 0.1 μg/ml.): significant; relaxant activity relative to theophylline [2]: five-times higher activity than theophylline; inhibition in paw oedema test (paw oedema; 100 mg/kg. p.o. dose, rats): 20%; LD50 ([1]; p.o. on mice, read-out: LD50): > 500 mg/kg; activity against acetylcholine relative to theophylline (acetylcholine; 50 μg/ml. antagonistic dose): six-times more active; maximum inhibition (acetylcholine) (acetylcholine; in a dose of 50 μg/ml.): 100%"
"COc1cc2c(cc1OC)C(C(C#N)SCC(=O)O)=NCC2 (stereo not drawn) [Example 6, α-carboxymethylmercapto-6,7-dimethoxy-3,4-l-dihydro-1-isoquinolyl-acetonitrile]",60 µM,225 µM,16%,"increase of the quantity of the urine secreted [3]: to the same extent as a 2 mg/kg. p.o. dose of Hypothiazid; LD50 ([1]; p.o. on mice, read-out: LD50): > 500 mg/kg"
COc1cc2c(cc1OC)C(C(C#N)SCCC(=O)O)=NCC2 (centres unmarked) [Example 9],95 µM,–,–,"increase of the quantity of the urine secreted [3]: to the same extent as a 2 mg/kg. p.o. dose of Hypothiazid; effect against histamine relative to theophylline (histamine): the same effect as theophylline; maximum inhibition (histamine) (histamine; 100 μg/ml.): 26%; relaxant effect relative to theophylline [2]: only half of its effect; relaxant activity relative to theophylline [2]: the same activity as theophylline; LD50 ([1]; p.o. on mice, read-out: LD50): > 500 mg/kg; activity against acetylcholine relative to theophylline (acetylcholine; 50 μg/ml. antagonistic dose): the same activity; maximum inhibition (acetylcholine) (acetylcholine; in a dose of 100 μg/ml.): 55%"

# From patent USRE32519E, “Sulfur-containing isoquinoline derivatives, process for the preparation thereof and pharmaceutical compositions containing them” (Chinoin Gyogyszer es Vegyeszeti Termekek Gyara, priority 1979, dated 1987)
